Consider two compounds from the NIST ThermoML archive (doi:10.1021/acs.jced.7b00937).

± gives the expanded uncertainty stated by the source.

The nature of this series: mn = molality of the nth substance listed, in mol/kg. As to conditions: 100 kPa, Liquid, Capillary tube (Ostwald / Ubbelohde) method.

A word on the viscosity: it is the resistance of a fluid to flow.

Regarding `Cc1ncc(CO)c(CO)c1O.Cl` [5-hydroxy-6-methyl-3,4-pyridinedimethanol hydrochloride] + O, the viscosity (288.15 K, m1 = 0.05) is given as 1.16 ± 0.021 mPa·s; the viscosity (288.15 K, m1 = 0.15) turned out to be 1.209 ± 0.021 mPa·s; the viscosity (288.15 K, m1 = 0.25) is listed as 1.256 ± 0.021 mPa·s; the viscosity (288.15 K, m1 = 0.35) is 1.304 ± 0.021 mPa·s; the viscosity (298.15 K, m1 = 0.05) is 0.912 ± 0.021 mPa·s; the viscosity (298.15 K, m1 = 0.15) was 0.944 ± 0.021 mPa·s. Moreover, the viscosity is, setting by setting: (298.15 K, m1 = 0.25) 0.982 ± 0.021 mPa·s; (298.15 K, m1 = 0.35) 1.019 ± 0.021 mPa·s; (308.15 K, m1 = 0.05) 0.736 ± 0.02 mPa·s; (308.15 K, m1 = 0.15) 0.761 ± 0.021 mPa·s; (308.15 K, m1 = 0.25) 0.791 ± 0.021 mPa·s; (308.15 K, m1 = 0.35) 0.82 ± 0.021 mPa·s. The viscosity by setting is: (318.15 K, m1 = 0.05) 0.607 ± 0.02 mPa·s; (318.15 K, m1 = 0.15) 0.634 ± 0.02 mPa·s; (318.15 K, m1 = 0.25) 0.656 ± 0.02 mPa·s; (318.15 K, m1 = 0.35) 0.68 ± 0.02 mPa·s.
Take `Cc1ncc(C[n+]2csc(CCO)c2C)c(N)n1.Cl.[Cl-]` [thiamine hydrochloride] + O: the viscosity (288.15 K, m1 = 0.05) worked out at 1.179 ± 0.021 mPa·s; the viscosity (288.15 K, m1 = 0.15) worked out at 1.27 ± 0.021 mPa·s; the viscosity (288.15 K, m1 = 0.25) is recorded as 1.368 ± 0.021 mPa·s; the viscosity (288.15 K, m1 = 0.35) worked out at 1.473 ± 0.022 mPa·s; the viscosity (298.15 K, m1 = 0.05) amounted to 0.917 ± 0.021 mPa·s; the viscosity (298.15 K, m1 = 0.15) is 0.986 ± 0.021 mPa·s. Further, the viscosity was found to be 1.059 ± 0.021 mPa·s (298.15 K, m1 = 0.25); 1.146 ± 0.021 mPa·s (298.15 K, m1 = 0.35); 0.748 ± 0.021 mPa·s (308.15 K, m1 = 0.05); 0.803 ± 0.021 mPa·s (308.15 K, m1 = 0.15); 0.851 ± 0.021 mPa·s (308.15 K, m1 = 0.25); 0.91 ± 0.021 mPa·s (308.15 K, m1 = 0.35). In addition, the viscosity is, setting by setting: (318.15 K, m1 = 0.05) 0.615 ± 0.02 mPa·s; (318.15 K, m1 = 0.15) 0.658 ± 0.02 mPa·s; (318.15 K, m1 = 0.25) 0.703 ± 0.02 mPa·s; (318.15 K, m1 = 0.35) 0.749 ± 0.021 mPa·s.
